Patent US12522594B2, “2-heteroaryl-3-oxo-2,3-dihydropyridazine-4-carboxamides for the treatment of cancer” (Deutsches Krebsforschungszentrum, priority 2017, dated 2026)

Experiments:
Format in all cases: cell-based
AHR [1] = molecular target: T1, AHR (Homo sapiens, UniProt P35869); test: In vitro assay 2: agonism in human cell line (transactivation assay, U87 cells, DRE firefly luciferase reporter); parameters: host or cells: U87 glioblastoma cells, stably transfected with DRE firefly luciferase and renilla reporter constructs; conditions: no kynurenic acid, 20 hours, read-out: Assay 2: AHR-luc Hum Agonism IC50
T1 sequence (P35869 11-848): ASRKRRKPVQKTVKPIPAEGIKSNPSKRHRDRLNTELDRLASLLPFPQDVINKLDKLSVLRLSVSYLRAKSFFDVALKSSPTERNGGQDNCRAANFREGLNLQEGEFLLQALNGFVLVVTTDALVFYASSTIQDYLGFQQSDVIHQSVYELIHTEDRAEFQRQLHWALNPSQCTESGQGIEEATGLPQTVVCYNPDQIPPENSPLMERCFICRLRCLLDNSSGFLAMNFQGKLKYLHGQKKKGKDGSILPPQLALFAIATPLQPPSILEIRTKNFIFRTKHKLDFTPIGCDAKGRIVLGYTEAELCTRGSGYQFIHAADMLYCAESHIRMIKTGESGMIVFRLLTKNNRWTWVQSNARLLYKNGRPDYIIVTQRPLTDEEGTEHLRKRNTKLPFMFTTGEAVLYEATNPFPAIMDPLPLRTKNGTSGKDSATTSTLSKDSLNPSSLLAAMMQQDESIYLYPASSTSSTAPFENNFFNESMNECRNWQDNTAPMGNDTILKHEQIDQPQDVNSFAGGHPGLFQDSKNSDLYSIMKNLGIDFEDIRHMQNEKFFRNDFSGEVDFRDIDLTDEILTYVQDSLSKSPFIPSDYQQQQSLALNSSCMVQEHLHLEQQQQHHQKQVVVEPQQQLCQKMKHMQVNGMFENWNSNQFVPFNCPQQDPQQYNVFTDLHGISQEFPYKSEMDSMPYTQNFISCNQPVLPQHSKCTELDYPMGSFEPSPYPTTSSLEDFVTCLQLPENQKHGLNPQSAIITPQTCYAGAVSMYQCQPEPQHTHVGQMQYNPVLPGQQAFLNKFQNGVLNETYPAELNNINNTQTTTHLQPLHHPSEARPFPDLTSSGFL
In short: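 Agonist readout: DRE firefly luciferase, with constitutive renilla reporter, in stably transfected U87 cells expressing AHR endogenously. Normalization used positive control (300 uM kynurenic acid) and negative control.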

AHR [2] = molecular target: T1, AHR; test: In vitro assay 1: antagonism in human cell line (transactivation assay, U87 cells prestimulated with kynurenic acid, DRE firefly luciferase reporter); parameters: host or cells: U87 glioblastoma cells, stably transfected with DRE firefly luciferase and renilla reporter constructs; conditions: 150 uM kynurenic acid, 20 hours, read-out: Assay 1: AHR-luc Hum Antagonism IC50
In short: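 Antagonism measured after kynurenic acid prestimulation in U87 cells that express AHR endogenously and stably harbor a firefly luciferase gene under DRE control plus a constitutive renilla construct. Positive and negative controls served for normalization.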

AHR [3] = molecular target: T1, AHR; test: In vitro assay 3: AHR-regulated CYP1A1 expression in human cell line (U937, qPCR, KA stimulation); conditions: U937 cells, 200 uM KA, 6 hours, CYP1A1 expression by qPCR; read-out: Assay 3: Hum CYP1A1 Antagonism IC50
In short: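 U937 human monocytic cells were stimulated with 200 uM KA for 6 h, with or without compound at eight concentrations from 1 nM to 3 uM, in duplicate. CYP1A1 mRNA was quantified by Taqman qPCR as fold expression normalised to HPRT. Unstimulated cells served as negative control.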

| SMILES | IC50 (AHR [1]) | IC50 (AHR [2]) | IC50 (AHR [3]) |
| --- | --- | --- | --- |
| O=C(N[C@H]1CCC[C@@H]1O)c1cc(-c2ccc(C(F)F)cc2)nn(-c2cccnc2)c1=O [Example 139, 6-[4-(Difluoromethyl)phenyl]-N-[(1S,2S)-2-hydroxycyclopentyl]-3-oxo-2-(pyridin-3-yl)-2,3-dihydropyridazine-4-carboxamide] | > 20000 nM | 9.2 nM | 9.16 nM |
| O=C(NC(CO)C(F)(F)F)c1cc(-c2ccc(OC(F)(F)F)cc2)nn(-c2cccnc2)c1=O (stereo not drawn) [Example 149, 3-Oxo-2-(pyridin-3-yl)-N-(1,1,1-trifluoro-3-hydroxypropan-2-yl)-6-[4-(trifluoromethoxy)phenyl]-2,3-dihydropyridazine-4-carboxamide] | > 20000 nM | 18.8 nM | 11.2 nM |
| Cc1ccc(-c2cc(C(=O)N[C@@H](C)CO)c(=O)n(-c3cccnc3)n2)cc1 [Example 152, N-[(2S)-1-Hydroxypropan-2-yl]-6-(4-methylphenyl)-3-oxo-2-(pyridin-3-yl)-2,3-dihydropyridazine-4-carboxamide] | > 20000 nM | 24.1 nM | 21.3 nM |
| C[C@@H](CO)NC(=O)c1cc(-c2ccc(OC(F)(F)F)cc2)nn(-c2cccnc2)c1=O [Example 153, N-[(2S)-1-Hydroxypropan-2-yl]-3-oxo-2-(pyridin-3-yl)-6-[4-(trifluoromethoxy)phenyl]-2,3-dihydropyridazine-4-carboxamide] | > 20000 nM | 24.2 nM | 21.7 nM |
| O=C(N[C@H]1COCC[C@H]1O)c1cc(-c2ccc(Cl)cc2)nn(-c2cccnc2)c1=O [Example 175, 1,5-Anhydro-2-({[6-(4-chlorophenyl)-3-oxo-2-(pyridin-3-yl)-2,3-dihydropyridazin-4-yl]carbonyl}amino)-2,4-dideoxy-D-erythro-pentitol] | > 20000 nM | 66.1 nM | 112 nM |
| O=C(N[C@H]1COCC[C@H]1O)c1cc(-c2ccc(OC(F)(F)F)cc2)nn(-c2cccnc2)c1=O [Example 176, 1,5-Anhydro-2,4-dideoxy-2-[({3-oxo-2-(pyridin-3-yl)-6-[4-(trifluoromethoxy)phenyl]-2,3-dihydropyridazin-4-yl}carbonyl)amino]-D-erythro-pentitol] | > 20000 nM | 66.1 nM | 38.8 nM |
| C[C@@H](CO)NC(=O)c1cc(-c2ccc(Cl)cc2)nn(-c2ccn(C)n2)c1=O [Example 192, 6-(4-Chlorophenyl)-N-[(2S)-1-hydroxypropan-2-yl]-2-(1-methyl-1H-pyrazol-3-yl)-3-oxo-2,3-dihydropyridazine-4-carboxamide] | > 20000 nM | 341 nM | 4.3 nM |
| Cc1cc(-n2nc(-c3ccc(Cl)cc3)cc(C(=O)N[C@@H](C)CO)c2=O)[nH]n1 [Example 193, 6-(4-Chlorophenyl)-N-[(2S)-1-hydroxypropan-2-yl]-2-(3-methyl-1H-pyrazol-5-yl)-3-oxo-2,3-dihydropyridazine-4-carboxamide] | > 20000 nM | 352 nM | 3.03 nM |
| C[C@@H](CO)NC(=O)c1cc(-c2ccc(Cl)cc2)nn(-c2cnsc2)c1=O [Example 194, (+)-6-(4-Chlorophenyl)-N-[(2S)-1-hydroxypropan-2-yl]-3-oxo-2-(1,2-thiazol-4-yl)-2,3-dihydropyridazine-4-carboxamide] | > 20000 nM | 3.09 nM | 7.6 nM |
| Cn1cc(-n2nc(-c3ccc(C(F)(F)F)cc3)cc(C(=O)N[C@H]3CCC[C@H]3O)c2=O)cn1 [Example 204, N-[(1S,2R)-2-Hydroxycyclopentyl]-2-(1-methyl-1H-pyrazol-4-yl)-3-oxo-6-[4-(trifluoromethyl)phenyl]-2,3-dihydropyridazine-4-carboxamide] | > 20000 nM | 1 nM | 1.55 nM |
| Cn1cc(-n2nc(-c3ccc(C(F)(F)F)cc3)cc(C(=O)N[C@H]3CCC[C@@H]3O)c2=O)cn1 [Example 210, N-[(1S,2S)-2-Hydroxycyclopentyl]-2-(1-methyl-1H-pyrazol-4-yl)-3-oxo-6-[4-(trifluoromethyl)phenyl]-2,3-dihydropyridazine-4-carboxamide] | > 20000 nM | 1.46 nM | 2.02 nM |
| Cn1cc(-n2nc(-c3ccc(C(F)(F)F)cc3)cc(C(=O)N[C@H](CO)CF)c2=O)cn1 [Example 211, N-[(2R)-1-Fluoro-3-hydroxypropan-2-yl]-2-(1-methyl-1H-pyrazol-4-yl)-3-oxo-6-[4-(trifluoromethyl)phenyl]-2,3-dihydropyridazine-4-carboxamide] | > 20000 nM | 1.62 nM | 2.67 nM |
| C[C@@H](CO)NC(=O)c1cc(-c2ccc(Cl)cc2)nn(-c2ccc(F)s2)c1=O [Example 220, 6-(4-Chlorophenyl)-2-(5-fluoro-2-thienyl)-N-[(2S)-1-hydroxypropan-2-yl]-3-oxo-2,3-dihydropyridazine-4-carboxamide] | > 20000 nM | 3.36 nM | 1.96 nM |
| Cn1cc(-n2nc(-c3ccc(Cl)cc3)cc(C(=O)N[C@@H](C#N)CO)c2=O)cn1 [Example 227, 6-(4-Chlorophenyl)-N-[(1S)-1-cyano-2-hydroxyethyl]-2-(1-methyl-1H-pyrazol-4-yl)-3-oxo-2,3-dihydropyridazine-4-carboxamide] | > 20000 nM | 5.99 nM | 11.6 nM |
| O=C(NC[C@H](O)C(F)(F)F)c1cc(-c2ccc(Cl)cc2)nn(-c2csc(Cl)c2)c1=O [Example 232, 6-(4-Chlorophenyl)-2-(5-chloro-3-thienyl)-3-oxo-N-[(2S)-3,3,3-trifluoro-2-hydroxypropyl]-2,3-dihydropyridazine-4-carboxamide] | > 20000 nM | 8.16 nM | 7.38 nM |
| C[C@@H](NC(=O)c1cc(-c2ccc(C(F)(F)F)cc2)nn(-c2cccnc2)c1=O)C(C)(C)O [Example 234, N-[(2R)-3-Hydroxy-3-methylbutan-2-yl]-3-oxo-2-(pyridin-3-yl)-6-[4-(trifluoromethyl)phenyl]-2,3-dihydropyridazine-4-carboxamide] | > 20000 nM | 8.42 nM | 9.6 nM |
| O=C(NC[C@H](O)C(F)(F)F)c1cc(-c2ccc(Cl)cc2)nn(-c2cncnc2)c1=O [Example 237, 6-(4-Chlorophenyl)-3-oxo-2-(pyrimidin-5-yl)-N-[(2S)-3,3,3-trifluoro-2-hydroxypropyl]-2,3-dihydropyridazine-4-carboxamide] | > 20000 nM | 9.38 nM | 7.86 nM |
| Cn1cc(-n2nc(-c3ccc(C(F)(F)F)cc3)cc(C(=O)N[C@H](CO)C3CC3)c2=O)cn1 [Example 238, N-[(1S)-1-Cyclopropyl-2-hydroxyethyl]-2-(1-methyl-1H-pyrazol-4-yl)-3-oxo-6-[4-(trifluoromethyl)phenyl]-2,3-dihydropyridazine-4-carboxamide] | > 20000 nM | 9.88 nM | 14.7 nM |
| CC(C)(O)CNC(=O)c1cc(-c2ccc(C(F)(F)F)nc2)nn(-c2cnsc2)c1=O [Example 240, N-(2-Hydroxy-2-methylpropyl)-3-oxo-2-(1,2-thiazol-4-yl)-6-[6-(trifluoromethyl)pyridin-3-yl]-2,3-dihydropyridazine-4-carboxamide] | > 20000 nM | 10.6 nM | 22.7 nM |
| Cn1cc(-n2nc(-c3ccc(C(F)(F)F)cc3)cc(C(=O)N[C@@H]3CCC[C@H]3O)c2=O)cn1 [Example 248, N-[(1R,2R)-2-Hydroxycyclo-pentyl]-2-(1-methyl-1H-pyrazol-4-yl)-3-oxo-6-[4-(trifluoromethyl)phenyl]-2,3-dihydropyridazine-4-carboxamide] | > 20000 nM | 14.1 nM | 31.3 nM |
| CC(C)(O)CNC(=O)c1cc(-c2ccc(Cl)cc2)nn(-c2csc(Cl)c2)c1=O [Example 250, 6-(4-Chlorophenyl)-2-(5-chloro-3-thienyl)-N-(2-hydroxy-2-methylpropyl)-3-oxo-2,3-dihydropyridazine-4-carboxamide] | > 20000 nM | 16.9 nM | 10.5 nM |
